Reference: ChEMBL document CHEMBL1268940, “Synthesis and anticancer evaluation of thiazolyl-chalcones” (Bioorg Med Chem Lett, 2010)
pIC50: −log10 of the molar value.

How the values were obtained:
NCI-H460 = assay: Cytotoxicity against human NCI-H460 cells by MTT assay; assay type: functional, cell-based
BGC-823 = assay: Cytotoxicity against human BGC823 cells by MTT assay; assay type: functional, cell-based
Bel-7402 = assay: Cytotoxicity against human Bel7402 cells by MTT assay; assay type: functional, cell-based
PC-3 = assay: Cytotoxicity against human PC3 cells by MTT assay; assay type: functional, cell-based
CCRF S-180 [1] = assay: Anticancer activity against mouse S180 cells xenografted in ICR mouse assessed as tumor weight inhibition at 50 mg/kg, ip relative to control; assay type: functional; details: CCRF S-180, ip, route intraperitoneal
CCRF S-180 [2] = assay: Anticancer activity against mouse S180 cells xenografted in ICR mouse assessed as tumor weight inhibition at 100 mg/kg, ip relative to control; details: CCRF S-180, ip, read-out: INH
CCRF S-180 [3] = assay: Anticancer activity against mouse S180 cells xenografted in ICR mouse assessed as tumor weight inhibition at 25 mg/kg, ip relative to control; assay type: functional; details: CCRF S-180, ip, route intraperitoneal

Row | Compound | pIC50 (NCI-H460) | pIC50 (BGC-823) | pIC50 (Bel-7402) | pIC50 (PC-3) | inhibition in vivo at 50 mg/kg (CCRF S-180 [1]) | inhibition in vivo at 100 mg/kg (CCRF S-180 [2]) | inhibition in vivo at 25 mg/kg (CCRF S-180 [3])
1 | COc1cc(/C=C/C(=O)c2sc(Nc3ccccc3C)nc2C)cc(OC)c1OC | 5.20 | 5.27 | 4.99 | < 4.60 | – | – | –
2 | Cc1cccc(Nc2nc(C)c(C(=O)/C=C/c3ccccc3Cl)s2)c1 | < 4.60 | 4.62 | < 4.60 | 4.65 | – | – | –
3 | COc1cc(/C=C/C(=O)c2sc(Nc3ccc(Cl)c(Cl)c3)nc2C)cc(OC)c1OC | < 4.60 | < 4.60 | < 4.60 | 4.71 | 25.1% | – | –
4 | COc1ccc(/C=C/C(=O)c2sc(Nc3ccc(Cl)cc3)nc2C)cc1 | < 4.60 | < 4.60 | < 4.60 | < 4.60 | – | – | –
5 | COc1cc(/C=C/C(=O)c2sc(Nc3cccc(C)c3)nc2C)cc(OC)c1OC | 4.70 | 4.76 | < 4.60 | < 4.60 | – | – | –
6 | Cc1nc(Nc2ccc(Cl)c(Cl)c2)sc1C(=O)/C=C/c1ccc(Cl)cc1 | < 4.60 | 4.64 | < 4.60 | < 4.60 | – | – | –
7 | COc1cccc(/C=C/C(=O)c2sc(Nc3ccc(Cl)c(Cl)c3)nc2C)c1 | 4.70 | 5.08 | < 4.60 | 5.00 | – | – | –
8 | COc1cccc(/C=C/C(=O)c2sc(Nc3cccc(C)c3)nc2C)c1 | < 4.60 | < 4.60 | < 4.60 | < 4.60 | – | – | –
9 | COc1cccc(/C=C/C(=O)c2sc(Nc3ccccc3C)nc2C)c1 | < 4.60 | < 4.60 | < 4.60 | < 4.60 | – | – | –
10 | Cc1nc(Nc2cccc(Cl)c2)sc1C(=O)/C=C/c1ccccc1 | < 4.60 | < 4.60 | < 4.60 | < 4.60 | – | – | –
11 | Cc1nc(Nc2ccc(Cl)c(Cl)c2)sc1C(=O)/C=C/c1ccccc1 | 4.64 | 4.97 | 4.67 | 5.10 | – | – | –
12 | Cc1ccccc1Nc1nc(C)c(C(=O)/C=C/c2ccc(Cl)cc2)s1 | < 4.60 | < 4.60 | < 4.60 | < 4.60 | – | – | –
13 | Cc1nc(Nc2ccc(Cl)cc2)sc1C(=O)/C=C/c1ccccc1 | < 4.60 | < 4.60 | < 4.60 | 4.61 | – | – | –
14 | Cc1cccc(Nc2nc(C)c(C(=O)/C=C/c3ccc(Cl)cc3)s2)c1 | < 4.60 | < 4.60 | < 4.60 | < 4.60 | – | – | –
15 | Cc1ccccc1Nc1nc(C)c(C(=O)/C=C/c2ccccc2Cl)s1 | < 4.60 | < 4.60 | < 4.60 | < 4.60 | – | – | –
16 | COc1cccc(/C=C/C(=O)c2sc(Nc3ccccc3)nc2C)c1 | < 4.60 | 4.84 | < 4.60 | < 4.60 | – | – | –
17 | Cc1nc(Nc2ccccc2)sc1C(=O)/C=C/c1ccccc1 | < 4.60 | 4.71 | < 4.60 | < 4.60 | – | – | –
18 | Cc1ccccc1Nc1nc(C)c(C(=O)/C=C/c2ccccc2)s1 | < 4.60 | < 4.60 | < 4.60 | < 4.60 | – | – | –
19 | COc1cccc(/C=C/C(=O)c2sc(Nc3cccc(Cl)c3)nc2C)c1 | < 4.60 | – | < 4.60 | < 4.60 | – | – | –

Row | Compound | pIC50 (NCI-H460) | pIC50 (BGC-823) | pIC50 (Bel-7402) | pIC50 (PC-3) | inhibition in vivo at 50 mg/kg (CCRF S-180 [1]) | inhibition in vivo at 100 mg/kg (CCRF S-180 [2]) | inhibition in vivo at 25 mg/kg (CCRF S-180 [3])
20 | Cc1nc(Nc2ccccc2)sc1C(=O)/C=C/c1ccccc1Cl | < 4.60 | 4.64 | < 4.60 | < 4.60 | – | – | –
21 | COc1cc(/C=C/C(=O)c2sc(Nc3cccc(Cl)c3)nc2C)cc(OC)c1OC | < 4.60 | 4.94 | 4.85 | < 4.60 | – | – | –
22 | COc1cccc(/C=C/C(=O)c2sc(Nc3ccc(Cl)cc3)nc2C)c1 | < 4.60 | < 4.60 | < 4.60 | < 4.60 | – | – | –
23 | COc1cc(/C=C/C(=O)c2sc(Nc3ccc(C)cc3)nc2C)cc(OC)c1OC | < 4.60 | < 4.60 | < 4.60 | < 4.60 | – | – | –
24 | COc1cc(/C=C/C(=O)c2sc(Nc3ccc(Cl)cc3)nc2C)cc(OC)c1OC | 4.66 | < 4.60 | < 4.60 | < 4.60 | – | – | –
25 | Cc1ccc(Nc2nc(C)c(C(=O)/C=C/c3ccc(Cl)cc3)s2)cc1 | < 4.60 | < 4.60 | < 4.60 | < 4.60 | – | – | –
26 | Cc1nc(Nc2ccccc2)sc1C(=O)/C=C/c1ccc(Cl)cc1 | < 4.60 | < 4.60 | < 4.60 | < 4.60 | – | – | –
27 | Cc1nc(Nc2cccc(Cl)c2)sc1C(=O)/C=C/c1ccc(Cl)cc1 | < 4.60 | < 4.60 | < 4.60 | < 4.60 | – | – | –
28 | COc1cccc(/C=C/C(=O)c2sc(Nc3ccc(C)cc3)nc2C)c1 | < 4.60 | < 4.60 | < 4.60 | < 4.60 | – | – | –
29 | O=P1(N(CCCl)CCCl)NCCCO1 (centres undefined) [CYCLOPHOSPHAMIDE ANHYDROUS] | – | – | – | – | – | 91.7% | –
30 | COc1cc(/C=C/C(=O)c2sc(Nc3ccc(F)c(Cl)c3)nc2C)cc(OC)c1OC | 5.20 | 5.01 | – | – | 22.6% | – | 23%
31 | Cc1ccc(Nc2nc(C)c(C(=O)/C=C/c3ccccc3Cl)s2)cc1 | < 4.60 | < 4.60 | < 4.60 | < 4.60 | – | – | –
32 | Cc1nc(Nc2ccc(Cl)cc2)sc1C(=O)/C=C/c1ccc(Cl)cc1 | < 4.60 | < 4.60 | < 4.60 | < 4.60 | – | – | –
33 | Cc1nc(Nc2ccc(Cl)c(Cl)c2)sc1C(=O)/C=C/c1ccc2c(c1)OCO2 | < 4.60 | < 4.60 | < 4.60 | < 4.60 | – | – | –
34 | COc1ccc(/C=C/C(=O)c2sc(Nc3ccc(Cl)c(Cl)c3)nc2C)cc1 | < 4.60 | < 4.60 | < 4.60 | < 4.60 | – | – | –
35 | Cc1ccc(Nc2nc(C)c(C(=O)/C=C/c3ccccc3)s2)cc1 | < 4.60 | < 4.60 | < 4.60 | < 4.60 | – | – | –
36 | COc1cc(/C=C/C(=O)c2sc(Nc3ccccc3)nc2C)cc(OC)c1OC | < 4.60 | < 4.60 | < 4.60 | < 4.60 | – | – | –
37 | Cc1cccc(Nc2nc(C)c(C(=O)/C=C/c3ccccc3)s2)c1 | 4.66 | 4.87 | < 4.60 | 4.93 | – | – | –
38 | Cc1ccc(Nc2nc(C)c(C(=O)/C=C/c3ccc4c(c3)OCO4)s2)cc1 | < 4.60 | < 4.60 | < 4.60 | < 4.60 | – | – | –
